From BindingDB's records for patent US11780845 (Relay Therapeutics, 2023)

Target: Fibroblast growth factor receptor 2 (Homo sapiens, UniProt P21802)
Assay: FGFR2 Biochemical Caliper Assay
Method: Compounds of the present invention were also tested in a FGFR2 Biochemical Caliper Assay. Compounds were prepared in 10 mM DMSO solution and serially diluted into 11 concentrations by 3-fold dilution. […] 5 uL of ATP solution (100 uM) was added to start the reaction and the plate was incubated for 90 minutes, then 70 uL of stopping buffer (0.5M EDTA) was added to terminate the reaction. Each well was analyzed using EZ reader.

Sequence of Fibroblast growth factor receptor 2 (P21802 whole entry): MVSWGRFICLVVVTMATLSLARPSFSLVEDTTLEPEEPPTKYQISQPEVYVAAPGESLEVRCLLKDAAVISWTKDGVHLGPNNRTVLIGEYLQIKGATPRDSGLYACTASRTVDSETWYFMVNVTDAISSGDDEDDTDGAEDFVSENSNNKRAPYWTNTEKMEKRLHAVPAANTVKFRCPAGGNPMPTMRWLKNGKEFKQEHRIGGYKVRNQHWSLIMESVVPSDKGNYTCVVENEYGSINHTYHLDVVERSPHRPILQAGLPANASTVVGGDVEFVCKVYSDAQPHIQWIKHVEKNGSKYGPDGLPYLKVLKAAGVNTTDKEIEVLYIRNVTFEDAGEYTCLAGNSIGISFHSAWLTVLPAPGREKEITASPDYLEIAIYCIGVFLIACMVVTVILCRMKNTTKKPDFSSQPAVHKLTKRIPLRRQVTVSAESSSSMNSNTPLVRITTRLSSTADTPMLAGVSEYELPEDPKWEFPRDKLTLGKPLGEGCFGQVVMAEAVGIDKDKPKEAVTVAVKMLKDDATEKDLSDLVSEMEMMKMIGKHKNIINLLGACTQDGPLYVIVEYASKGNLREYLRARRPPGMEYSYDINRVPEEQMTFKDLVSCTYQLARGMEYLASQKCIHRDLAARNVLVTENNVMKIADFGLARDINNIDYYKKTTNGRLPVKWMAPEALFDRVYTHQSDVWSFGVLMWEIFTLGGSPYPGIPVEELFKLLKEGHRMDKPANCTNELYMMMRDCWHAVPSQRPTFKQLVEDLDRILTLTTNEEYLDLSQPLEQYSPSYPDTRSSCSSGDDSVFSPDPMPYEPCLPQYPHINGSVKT

SMILES | IC50 [µM]
CC#CC(=O)Nc1ccc(-c2c(-c3ccc(Oc4cccc(C)n4)c(OC)c3)c3c(N)ncnc3n2C)cc1 | < 0.1
C=CC(=O)Nc1ccc(-c2c(-c3ccc(Oc4ccccc4)c(OC)c3)c3c(N)ncnc3n2C)cc1 [US11780845, Example 12] | < 0.1
CC#CC(=O)N(C)c1ccc(-c2c(-c3ccc(Oc4cccc(C)n4)c(OC)c3)c3c(N)ncnc3n2C)cc1 [US11780845, Example 26] | < 0.1
C=CC(=O)Nc1ccc(-c2c(-c3ccc(Oc4cccc(C)c4)c(OC)c3)c3c(N)ncnc3n2C)cc1 [US11780845, Example 27] | < 0.1
